Test results reported in US10828301B2, “2,4-pyrimidinediamine compounds and their uses” (Rigel Pharmaceuticals, Inc, priority 2002, dated 2020).

Columns and labels:
[1] = target: FcγRI receptor-mediated degranulation; assay: FcγRI-mediated degranulation (activation with anti-human IgG Fab fragment); settings: cells not primed with IgE, activated with rabbit anti-human IgG Fab fragment
Jurkat cells = assay: Jurkat (T-cell) toxicity, light scatter; assay type: cell-based; settings: Homo sapiens, 18-24 hr, flow cytometric light scatter, read-out: Toxicity Jurkat Light Scat.
Protocol: Dilute Jurkat cells to 2×10^5 cells/ml in complete RPMI (10% heat-inactivated fetal bovine serum) media and incubate at 37° C., 5% CO2 for 18 hours. Add 65 ul cells at 7.7×10^5 cells/ml to a 96-well V-bottom plate (TC-treated, Costar) containing 65 ul 2× compound (final vehicle concentration is 0.5% DMSO, 1.5% MeOH). Mix, incubate plates for 18-24 hr at 37° C., 5% CO2. Toxicity was assessed by flow cytometric analysis of cellular light scatter

B-cell line BJAB = assay: BJAB (B-cell) toxicity, light scatter; assay type: cell-based; settings: Homo sapiens; BJAB B-cells, flow cytometric light scatter; read-out: Toxicity BJAB Light Scat.
Protocol: The B-cell line BJAB was cultured in log phase in RPMI1640+10% heat-inactivated fetal bovine serum, lx L-glutamine, lx penicillin, lx […] and 1× beta-mercaptoethanol at 37° C., 5% CO2. First, BJABs were harvested, spun and resuspended in culture medium to a concentration of 7.7×10^5 cells/mL. 65 uL cells were mixed with 65 uL compound, in duplicate and in the presence of 0.1% DMSO in a V-bottomed 96-well tissue culture plate. Cells were incubated with compound at various dilutions at 37° C., 5% CO2. Toxicity was assessed by flow cytometric analysis of cellular light scatter.

[2] = system: cultured human mast cells (CHMC); assay: CHMC low cell density IgE activation: tryptase and LTC4 assays; assay type: cell-based; settings: Homo sapiens, Mast cell, Low Density CHMC, anti-IgE activation
How it was run: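 Cultured human mast cells at low density (1000-1500 per well) rested 1 h at 37° C, then stimulated with anti-IgE for 30 min at 37° C. Supernatant tryptase measured with fluorogenic substrate (30 min, room temperature); LTC4 quantified by ELISA on diluted supernatant.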

[3] = system: cultured human mast cells (CHMC); assay: CHMC low cell density ionomycin activation: tryptase assay; assay type: cell-based; settings: Homo sapiens, Mast cell, Low Density CHMC, ionomycin activation
[4] = system: basophils in whole human peripheral blood; assay: Basophil ionomycin activation: histamine release assay; assay type: cell-based; settings: Homo sapiens
Protocol: Assays for ionomycin-induced basophil cell degranulation were carried out as described for the Basophil IgE or Dustmite Activation Assay (Section 6.4.6, supra), with the exception that following incubation with compound, cells were stimulated with 20 μl of 2 μM ionomycin.

[5] = system: bone marrow derived mast cells (BMMC); assay: BMMC high cell density IgE activation: degranulation (hexosiminidase, histamine), leukotriene (LTC4) and cytokine (TNFalpha, IL-6) assays; assay type: cell-based; settings: Mus musculus, anti-IgE activation, hexosaminidase release, read-out: BMMC anti-IgE hexos IC50
Protocol: After sensitizing, cells are counted, pelleted (1000 rpm, 5-10 minutes), and resuspended at 1-3×10^6 cells/ml in MT buffer. Add 100 ul of cell suspension to each well and 100 ul of compound dilutions. The final vehicle concentration is 0.5% DMSO. Incubate at 37° C. (5% CO2) for 1 hour. After 1 hour of compound treatment, stimulate cells with 6× stimulus (60 ng/ml DNP-BSA). Mix wells with the cells and allow plates to incubate at 37° C. (5% CO2) for one hour. After 1 hour incubation, pellet cells (10 minutes, 1000 RPM) and collect 200 ul per well of the supernatant, being careful not to disturb pellet, and transfer to a clean tube or 96-well plate. Place the supernatant plate on ice. During the 4-5 hour step (see next) perform the hexosiminidase assay. Resuspend cell pellet in 240 ul WEI-conditioned media containing 0.5% DMSO and corresponding concentration of compound. Incubate BMMC cells for 4-5 hours at 37° C. (5% CO2). After incubation, pellet cells (1000 RPM, 10 minutes) and collect 225 ul per well and place in −80° C. until ready to perform ELISAS. ELISAS are performed on appropriately diluted samples (determined empirically for each donor cell population so that the sample measurement falls within the standard curve) following the supplier's instructions.
Add 50 uL of BMMC cell supernatant (see above) to the hexoseaminidase substrate, place at 37° C. for 30 minutes and read the plate at 5, 10, 15, and 30 minutes on a spectrophotometer.

[6] = system: basophils in whole human peripheral blood; assay: Basophil IgE activation: histamine release assay; assay type: cell-based; settings: Homo sapiens, anti-IgE activation
Protocol: The basophil activation assay was carried out using whole human peripheral blood from donors allergic to dust mites with the majority of the red blood cells removed by dextran sedimentation. Human peripheral blood was mixed 1:1 with 3% dextran T500 and RBCs were allowed to settle for 20-25 min. The upper fraction was diluted with 3 volumes of D-PBS and cells were spun down for 10 min at 1500 rpm, RT. Supernatant was aspirated and cells were washed in an equal volume MT-buffer. Finally, cells were resuspended in MT-buffer containing 0.5% DMSO in the original blood volume. 80 uL cells were mixed with 20 uL compound in the presence of 0.5% DMSO, in triplicate, in a V-bottom 96-well tissue culture plate. A dose range of 8 compound concentrations was tested resulting in a 10-point dose response curve including maximum (stimulated) and minimum (unstimulated) response. […] The cells were stimulated for 30 minutes at 37° C., 5% CO2. The plate was spun for 10 min at 1500 rpm at room temperature and 80 uL the supernatant was harvested for histamine content analysis using the histamine ELISA kit supplied by Immunotech. The ELISA was performed according to supplier's instructions.

[7] = system: ionophore-induced degranulation of mast and/or basophil cells; assay: Ionophore (ionomycin or A23187)-induced degranulation counter screen; assay type: cell-based; settings: Mus musculus; high density BMMC, ionomycin activation, hexosaminidase release; read-out: BMMC Ionomycin Hexos. IC50
Source text: In addition to the FcεRI or FcγRI degranulation pathways discussed above, degranulation of mast and/or basophil cells can be induced by other agents. For example, ionomycin, a calcium ionophore that bypasses the early FcεRI or FcγRI signal transduction machinery of the cell, directly induces a calcium flux that triggers degranulation. Referring again to FIG. 2, activated PLCγ initiates pathways that lead to, among other things, calcium ion mobilization and subsequent degranulation. As illustrated, this Ca^2+ mobilization is triggered late in the FcεRI signal transduction pathway. […] Other ionophores that induce degranulation in this manner include A23187. The ability of granulation-inducing ionophores such as ionomycin to bypass the early stages of the FcεRI and/or FcγRI signaling cascades may be used as a counter screen to identify active compounds of the invention that specifically exert their degranulation-inhibitory activity by blocking or inhibiting the early FcεRI or FcγRI signaling cascades, as discussed above.
Assays suitable for determining the IC50 of ionophore-induced degranulation include any of the previously-described degranulation assays, with the modification that the cells are stimulated or activated with a degranulation-inducing calcium ionophore such as ionomycin or A23187 (A.G. Scientific, San Diego, Calif.) instead of anti-IgE antibodies or an IgE-specific allergen. Specific assays for assessing the ability of a particular 2,4-pyrimidinediamine compound of the invention to inhibit ionophore-induced degranulation are provided in the Examples section.

[8] = LTC4 readout, read-out: CHMC anti-IgE LTC4
[9] = tryptase readout, read-out: CHMC anti-IgE Tryptase
[10] = tryptase readout, read-out: CHMC Ionomycin Tryptase
[11] = hexosaminidase readout, read-out: CHMC anti-IgE Hexos.
[12] = hexosaminidase readout, read-out: CHMC Ionomycin Hexos.

SMILES	inhibition of FcγRI-mediated degranulation [1]	IC50 [2, 8] [nM]	IC50 [2, 9] [nM]	IC50 [3, 10] [nM]	IC50 [4] [nM]	IC50 [5] [nM]	IC50 [6] [nM]	IC50 [2, 11] [nM]	IC50 [3, 12] [nM]	IC50 (Jurkat cells) [nM]	IC50 (B-cell line BJAB) [nM]	IC50 [7] [nM]
CNC(=O)COc1cccc(Nc2ncc(F)c(Nc3ccc4c(c3)NC(=O)C(F)(F)O4)n2)c1 [Compound R921303, N4-[(2,2-Difluoro-4H-benzo[1,4]oxazin-3-one)-6-yl]-5-fluoro-N2-[3-(methylaminocarbonylmethyleneoxy)phenyl]-2,4-pyrimidinediamine]	inhibit FcγRI-mediated degranulation											
COc1ccc(Nc2ncc(F)c(Nc3ccc(OC)c(OC)c3)n2)cc1OC [Compound R926110, N2,N4-Bis(3,4-dimethoxyphenyl)-5-fluoro-2,4-pyrimidinediamine]		1420	1070	> 10000	> 10000	1000	300	1200	> 10000	> 10000	> 10000	4500
CCOc1ccc(Nc2nc(Nc3cccc(O)c3)ncc2F)cc1 [Compound R926146, N4-(4-Ethoxyphenyl)-N2-(3-hydroxyphenyl)-5-fluoro-2,4-pyrimidinediamine]		1590				1350		761	6700	> 10000	> 10000	5000
Oc1cccc(Nc2ncc(F)c(Nc3ccc4c(c3)OCCO4)n2)c1 [Compound R926210, N4-(3,4-Ethylenedioxyphenyl)-5-fluoro-N2-(3-hydroxyphenyl)-2,4-pyrimidinediamine]		800			> 10000	600	370			> 10000	> 10000	> 10000
Cc1cnc(Nc2cccc(O)c2)nc1Nc1cccc(O)c1 [Compound R926248, N2,N4-Bis(3-hydroxyphenyl)-5-methyl-2,4-pyrimidinediamine]		760	900	> 10000						> 10000	> 10000	
Oc1cccc(Nc2ccnc(Nc3cccc(O)c3)n2)c1 [Compound R926249, N2,N4-Bis(3-hydroxyphenyl)-2,4-pyrimidinediamine]		250	500	> 10000						> 10000	> 10000	
CC(=O)Oc1cccc(Nc2ncc(F)c(Nc3cccc(OC(C)=O)c3)n2)c1 [Compound R926387, N2,N4-Bis(3-acetyloxyphenyl)-5-fluoro-2,4-pyrimidinediamine]		700	650	> 10000						> 10000	> 10000	

Now from value to molecule, other results behind:

inhibition of FcγRI-mediated degranulation [1]	IC50 [2, 8] [nM]	IC50 [2, 9] [nM]	IC50 [3, 10] [nM]	IC50 [4] [nM]	IC50 [5] [nM]	IC50 [6] [nM]	IC50 [2, 11] [nM]	IC50 [3, 12] [nM]	SMILES	IC50 (Jurkat cells) [nM]	IC50 (B-cell line BJAB) [nM]	IC50 [7] [nM]
inhibit FcγRI-mediated degranulation									CNC(=O)COc1cccc(Nc2ncc(F)c(Nc3ccc(OC(F)(F)F)c(Cl)c3)n2)c1 [Compound R920410, N4-(3-Chloro-4-trifluoromethoxyphenyl)-5-fluoro-N2-[3-(N-methylamino)carbonylmethyleneoxyphenyl]-2,4-pyrimidinediamine]			
	180	225	> 10000						Oc1cccc(Nc2ncc(Br)c(Nc3cccc(O)c3)n2)c1 [Compound R925778, N2,N4-Bis(3-hydroxyphenyl)-5-bromo-2,4-pyrimidinediamine]	> 10000	> 10000	
	280	850	> 10000						Oc1cccc(Nc2nc(Nc3ccc4c(c3)OCCO4)ncc2Br)c1 [Compound R925797, 5-Bromo-N2-(3,4-ethylenedioxyphenyl)-N4-(3-hydroxyphenyl)-2,4-pyrimidinediamine]	> 10000	> 10000	
	760			> 10000	900	950	787	6400	CCOc1ccc(Nc2nc(Nc3ccc(OC)c(OC)c3)ncc2F)cc1 [Compound R926108, N2-(3,4-Dimethoxyphenyl)-N4-(4-ethoxyphenyl)-5-fluoro-2,4-pyrimidinediamine]	> 10000	> 10000	> 10000
inhibit FcγRI-mediated degranulation									Cc1cc(Nc2ncc(F)c(Nc3ccc4c(c3)NC(=O)C(F)(F)O4)n2)cc(Cl)c1O [Compound R926971]			
inhibit FcγRI-mediated degranulation									CNC(=O)COc1cccc(Nc2ncc(F)c(Nc3ccc4c(n3)NC(=O)C(C)(C)O4)n2)c1 [Compound R940347, N4-[(2,2-Dimethyl-4H-5-pyrido[1,4]oxazin-3-one)-6-yl]-5-fluoro-N2-[3-(methylaminocarbonylmethyleneoxy)phenyl]-2,4-pyrimidinediamine]			
inhibit FcγRI-mediated degranulation									O=C1Nc2cc(Nc3ncc(F)c(Nc4ccc5c(c4)NC(=O)C(F)(F)O5)n3)ccc2OC1(F)F [Compound R940352, N2,N4-[(2,2-Difluoro-4H-benzo[1,4]oxazin-3-one)-6-yl]-5-fluoro-2,4-pyrimidinediamine]			
